From patent publication US20090123561A1, “Fungicide mixtures based on 1-methyl-pyrazol-4-ylcarboxanilides” (BASF AKTIENGESELLLSCHAFT, priority 2005, published 2009)

Assays:
Assay type in all cases: in vivo
Alternaria solani = test: Activity against early blight of tomato caused by Alternaria solani (protective spray on potted tomato plants); details: read after 5 days
Method: (§1) The active compounds, separately or jointly, were prepared as a stock solution comprising 25 mg of active compound which was made up to 10 ml using a mixture of acetone and/or dimethyl sulfoxide and the emulsifier Uniperol® EL (wetting agent having an emulsifying and dispersing action based on ethoxylated alkylphenols) in a ratio by volume of solvent/emulsifier of 99:1. The mixture was then made up to 100 ml with water. This stock solution was diluted with the solvent/emulsifier/water mixture described to give the concentration of active compound stated below.
(§2) Alternatively, the active compounds epoxiconazole and pyraclostrobin were used as a commercial formulation and diluted with water to the stated active compound concentrations.
(§3) The visually determined percentages of infected leaf areas were converted into efficacies in % of the untreated control:
(§4) The efficacy (E) is calculated as follows using Abbot's formula: […]
(§5) α corresponds to the fungicidal infection of the treated plants in % and β corresponds to the fungicidal infection of the untreated (control) plants in %
(§6) An efficacy of 0 means that the infection level of the treated plants corresponds to that of the untreated control plants; an efficacy of 100 means that the treated plants are not infected.
(§7) The expected efficacies of active compound combinations were determined using Colby's formula (Colby, S. R. “Calculating synergistic and antagonistic responses of herbicide combinations”, Weeds, 15, pp. 20-22, 1967) and compared with the observed efficacies.
(§8) E=x+y−x·y/100 Colby's formula • E expected efficacy, expressed in % of the untreated control, when using the mixture of the active compounds A and B at the concentrations a and b • x efficacy, expressed in % of the untreated control, when using the active compound A at the concentration a • y efficacy, expressed in % of the untreated control, when using the active compound B at the concentration b
Activity Against Early Blight of Tomato Caused by Alternaria solani
Leaves of potted tomato plants were sprayed to runoff point with an aqueous suspension having the active compound concentration stated below. The next day, the leaves were infected with an aqueous spore suspension of Alternaria solani in a 2% strength biomalt solution having a density of 0.17×10^6 spores/ml. The plants were then placed in a water vapor-saturated chamber at temperatures between 20 and 22° C. After 5 days, the disease on the untreated but infected control plants had developed to such an extent that the infection could be determined visually in %.

Botrytis cinerea = test: Activity against gray mold on bell pepper leaves caused by Botrytis cinerea, 1 day protective application; details: efficacy in % of untreated control, read after 5 days
Method: as §1, §2, §3, §4, §5, §6, §7, §8
Activity Against Gray Mold on Bell Pepper Leaves Caused by Botrytis cinerea, 1 Day Protective Application
Bell pepper seedlings of the cultivar “Neusiedler Ideal Elite” were, after 2-3 leaves were well developed, sprayed to runoff point with an aqueous suspension in the active compound concentrations stated below. The next day, the treated plants were inoculated with a spore suspension of Botrytis cinerea which comprised 1.7×10^6 spores/ml in a 2% strength aqueous biomalt solution. The test plants were then placed in a dark climatized chamber at 22 to 24° C. and high atmospheric humidity. After 5 days, the extent of the fungal infection on the leaves could be determined visually in %.

[1] = test system: Pyrenophora [syn. Drechslera] teres; test: Activity against net blotch of barley caused by Pyrenophora teres, 1 day protective application; details: barley seedlings, efficacy in % of untreated control, read after 6 days
Method: as §1, §2, §3, §4, §5, §6, §7, §8
Activity Against Net Blotch of Barley Caused by Pyrenophora teres, 1 Day Protective Application
Leaves of potted barley seedlings were sprayed to runoff point with an aqueous suspension having the active compound concentration stated below. 24 hours after the spray coating had dried on, the test plants were inoculated with an aqueous spore suspension of Pyrenophora [syn. Drechslera] teres, the net blotch pathogen. The test plants were then placed in a greenhouse at temperatures between 20 and 24° C. and at 95 to 100% relative atmospheric humidity. After 6 days, the extent of the development of the disease was determined visually in % infection of the entire leaf area.

[2] = single active compound 63 mg/l, efficacy in % of untreated control (Abbot)

Molecule: zinc ammoniate ethylenebis(dithiocarbamate) [metiram]
- Efficacy (% of untreated control, Abbott) (Alternaria solani; [2]): 0%

Molecule: Cn1cc(C(=O)Nc2ccccc2-c2ccccc2C(F)(F)F)c(C(F)(F)F)n1 [No. 57, N-(2′-trifluoromethylbiphen-2-yl)-1-methyl-3-trifluoromethyl-1H-pyrazole-4-carboxamide]
- Efficacy (% of untreated control) (Botrytis cinerea; single active compound 4 mg/l): 0%
- Efficacy (% of untreated control) (Botrytis cinerea; single active compound 16 mg/l): 0%
- Efficacy (% of untreated control) (Botrytis cinerea; single active compound 63 mg/l): 22%
- Efficacy (% of untreated control) ([1]; single active compound 16 mg/l): 41%

Molecule: Cn1cc(C(=O)Nc2ccccc2-c2ccccc2C(F)(F)F)c(C(F)F)n1 [No. 40, N-(2′-trifluoromethylbiphen-2-yl)-1-methyl-3-difluoromethyl-1H-pyrazole-4-carboxamide]
- Efficacy (% of untreated control) (Botrytis cinerea; single active compound 16 mg/l): 11%
- Efficacy (% of untreated control) (Botrytis cinerea; single active compound 63 mg/l): 44%
- Efficacy (% of untreated control, Abbott) (Alternaria solani; [2]): 25%
- Efficacy (% of untreated control) ([1]; single active compound 4 mg/l): 18%

Molecule: COc1ccc(C(=CC(=O)N2CCOCC2)c2ccc(Cl)cc2)cc1OC [dimethomorph, 3-(4-chlorophenyl)-3-(3,4-dimethoxyphenyl)-1-morpholin-4-yl-propenone]
- Efficacy (% of untreated control) ([1]; single active compound 4 mg/l): 0%

Molecule: COc1cc(C)c(C(=O)c2c(OC)ccc(Br)c2C)c(OC)c1OC [metrafenone, 3′-bromo-2,3,4,6′-tetramethoxy-2′,6-dimethylbenzophenone]
- Efficacy (% of untreated control) (Botrytis cinerea; single active compound 16 mg/l): 0%

Molecule: O=c1c2cc(F)ccc2nc(-n2cncn2)n1-c1ccc(Cl)cc1Cl [fluquinconazole, 3-(2,4-dichlorophenyl)-6-fluoro-2-[1,2,4]-triazol-1-yl-3H-quinazolin-4-one]
- Efficacy (% of untreated control, Abbott) (Alternaria solani; single active compound 4 mg/l, efficacy in % of untreated control): 0%

Molecule: CO/N=C(/C(=O)OC)c1ccccc1COc1ccccc1C [kresoximmethyl, methyl (E)-methoxyimino[α-(o-tolyloxy)-o-tolyl]acetate]
- Efficacy (% of untreated control) (Botrytis cinerea; single active compound 16 mg/l): 0%
- Efficacy (% of untreated control) (Botrytis cinerea; single active compound 63 mg/l): 0%

Molecule: N#Cc1c(Cl)c(Cl)c(Cl)c(C#N)c1Cl [chlorothalonil, 2,4,5,6-tetrachloroisophthalonitrile]
- Efficacy (% of untreated control, Abbott) (Alternaria solani; [2]): 0%

Molecule: Fc1ccc([C@]2(Cn3cncn3)O[C@H]2c2ccccc2Cl)cc1 (racemic) [epoxiconazole, (2RS,3SR)-1-[3-(2-chlorophenyl)-2,3-epoxy-2-(4-fluorophenyl)propyl]-1H-1,2,4-triazole]
- Efficacy (% of untreated control) ([1]; single active compound 1 mg/l): 0%

Molecule: Cc1cc(C)nc(Nc2ccccc2)n1 [pyrimethanil, 4,6-dimethylpyrimidin-2-ylphenylamine]
- Efficacy (% of untreated control) (Botrytis cinerea; single active compound 4 mg/l): 0%
- Efficacy (% of untreated control) (Botrytis cinerea; single active compound 63 mg/l): 0%

Molecule: CC(C)(C)C(O)(CCc1ccc(Cl)cc1)Cn1cncn1 (centres unmarked) [tebuconazole, 1-(4-chlorophenyl)-4,4-dimethyl-3-[1,2,4]triazol-1-ylmethylpentan-3-ol]
- Efficacy (% of untreated control) ([1]; single active compound 4 mg/l): 0%

Molecule: COC(=O)N(OC)c1ccccc1COc1ccn(-c2ccc(Cl)cc2)n1 [pyraclostrobin, methyl N-{2-[1-(4-chlorophenyl)-1H-pyrazol-3-yloxymethyl]phenyl}(N-methoxy)carbamate]
- Efficacy (% of untreated control) (Botrytis cinerea; single active compound 16 mg/l): 11%
